Structures can show the parent of a compound that is named as a salt.
Experiments:
P. aeruginosa PΔ3 cells = conditions: 10-80 µM; for Concentration slopes of accumulation, PΔ3_1 min: 1 min incubation; for Concentration slopes of accumulation, PΔ3_40 min: 40 min incubation
Procedure: (§1) PAO1-Pore and PΔ3-Pore were grown at 37 °C overnight with shaking at 225 rpm in 50 mM MOPS-M9 (pH 7.2) Minimal Medium supplemented with 1% glycerol[42],[43].
(§2) The next day, cells were sub-cultured (1.5:100) in fresh MOPS-M9 medium and grown for 16 h. The cultures were then split into two flasks and one of them was induced with 0.1 mM IPTG. Cells incubated for additional 4 h until OD600 reached ~ 1.0 and harvested by centrifugation at 3,275xg for 20 min in RT, washed and concentrated 10X in the spent medium. Assays were performed in 96-well plates in a final volume of […]. Cells were incubated with 10, 20, 40, 80 µM of compounds and after 1- and 40-min incubation at RT, 100 µL cell aliquots were collected by vacuum filtration onto 1.0 µm Glass Fiber Type B filters. For no-cell controls, compounds were diluted to 10, 20, 40, 80 µM final concentration in the same medium, incubated for 1 min and 40 min and filtered onto the same plates. The cell loaded and cell-free filters were dried, removed from plates and placed into 100% methanol at -80 °C for at least 10 min. Filter-bound material was extracted by water bath sonication for 1 min. Cell and filter debris were separated by ultracentrifugation at 45,000 rpm (TLA55 rotor, Beckman) for 8 min at 16 °C and the pellet re-extracted with 80% methanol in water by sonication for 15 min followed by ultracentrifugation at the same conditions. Supernatants from two extractions were combined. For the compound quantification, 5 µL of solution was analyzed in triplicate.
(§3) Calibration curves for MS analyses of compounds were generated in the same experiment by mixing compound at increasing concentrations with the sonicated PAO1 cell extracts. […] Azithromycin was used as a positive control in all experiments.
(§4) Samples were processed in positive ion mode. An Eclipse plus C18 Rapid Resolution HD column (1.8 μm, 2.1 × 50 mm, Agilent, USA) was used for separation. The flow rate was 0.6 mL/min using the following gradient: 0 to 1 min (0- 20% ACN), 1 to 4 min (20- 80% ACN), 4 to 5.1 min (80–100% ACN), 5.1 to 6.30 (100% ACN). Solvents contained 0.1% formic acid to promote positive ion formation in the electrospray. […] Data were analyzed using Agilent Masshunter workstation quantitative analysis v. B.10 software.

P. aeruginosa PAO1 cells = assay: LC–MS quantification of intracellular accumulation, PAO1; conditions: 10-80 µM; for Concentration slopes of accumulation, PAO1_1 min: 1 min incubation; for Concentration slopes of accumulation, PAO1_40 min: 40 min incubation
Procedure: as §1, §2, §3, §4

[1] = test system: P. aeruginosa PAO1-Pore cells; assay: LC–MS quantification of intracellular accumulation, PAO1-Pore; conditions: 10-80 µM; for Concentration slopes of accumulation, PAO1-Pore_1 min: 1 min incubation; for Concentration slopes of accumulation, PAO1-Pore_40 min: 40 min incubation
Procedure: as §1, §2, §3, §4

[2] = test system: P. aeruginosa PΔ3-Pore cells; assay: LC–MS quantification of intracellular accumulation, PΔ3-Pore; conditions: 10-80 µM; for Concentration slopes of accumulation, PΔ3-Pore_1 min: 1 min incubation; for Concentration slopes of accumulation, PΔ3-Pore_40min: 40 min incubation
Procedure: as §1, §2, §3, §4
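Further: slope of accumulation versus external concentration fitted as a line through zero.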

SMILES | Concentration slopes of accumulation, PΔ3_1 min (P. aeruginosa PΔ3 cells) | Concentration slopes of accumulation, PΔ3_40 min (P. aeruginosa PΔ3 cells) | Concentration slopes of accumulation, PAO1_1 min (P. aeruginosa PAO1 cells) | Concentration slopes of accumulation, PAO1_40 min (P. aeruginosa PAO1 cells) | Concentration slopes of accumulation, PAO1-Pore_1 min [1] | Concentration slopes of accumulation, PAO1-Pore_40 min [1] | Concentration slopes of accumulation, PΔ3-Pore_1 min [2] | Concentration slopes of accumulation, PΔ3-Pore_40min [2]
CC(CCc1ccccc1)NCC(O)c1ccc(O)c(C(N)=O)c1 (stereo not drawn) [OU-0000748, Labetalol HCl] | 17.87 | 22.85 | 15.94 | 14.89 | 21.98 | 21.99 | 23.35 | 22.27
CCN1CCCC1CNC(=O)c1cc(S(N)(=O)=O)ccc1OC.Cl (stereo not drawn) [OU-0032505, Sulpiride HCl] | 6.18 | 6.27 |  |  | 7.04 | 7.90 | 7.14 | 7.60
CNC(=C[N+](=O)[O-])NCCSCc1ccc(CN(C)C)o1 [OU-0000840, Ranitidine HCl] | 2.62 | 3.53 | 3.41 | 2.83 | 4.44 | 5.25 | 5.13 | 1.37
NC(N)=Nc1nc(CSCCC(N)=NS(N)(=O)=O)cs1 [OU-0000841, Famotidine] | 4.40 | 4.38 | 4.64 | 5.28 | 3.94 | 2.86 | 6.27 | 4.45
COc1ccc(CCN(C)CCCC(C#N)(c2ccc(OC)c(OC)c2)C(C)C)cc1OC (stereo not drawn) [OU-0000734, Verapamil HCl] | 12.95 | 12.00 | 12.96 | 13.17 | 16.77 | 15.63 | 17.77 | 18.38
CCCC[C@H]1CNC(=O)[C@H](Cc2cc(F)cc(F)c2)N1 [OU-0032509] | 14.12 | 18.21 |  |  | 23.40 | 20.61 | 27.36 | 24.02
COCCCC/C(=N\OCCN)c1ccc(C(F)(F)F)cc1 [OU-0000742, Fluvoxamine] | 4.15 | 4.97 | 3.55 | 4.45 | 6.04 | 6.15 | 6.28 | 6.18
CC(Cc1ccc(O)cc1)NCC(O)c1cc(O)cc(O)c1 (stereo not drawn) [OU-0000755, Fenoterol HBr] | 2.24 | 1.99 | 1.15 | 1.72 | 1.22 | 2.13 | 2.02 | 2.24
O=C1NC[C@@H](CCC2CCCCC2)N[C@H]1Cc1cc(F)cc(F)c1 [OU-0032508] | 14.00 | 12.40 |  |  | 20.38 | 23.85 | 20.49 | 21.97
CC[C@H]1CN2CCc3cc(OC)c(OC)cc3[C@@H]2C[C@@H]1C[C@H]1NCCc2cc(OC)c(OC)cc21.Cl.Cl [OU-0032504, Emetine DIHCl] | 1.07 | 0.76 | 0.61 | 0.65 | 1.29 | 1.17 | 1.71 | 1.61
CC(C)NCC(O)c1ccc(NS(C)(=O)=O)cc1 (stereo not drawn) [OU-0032507, Sotalol HCl] | 3.77 | 2.90 | 4.31 | 4.58 | 8.24 | 3.55 | 15.87 | 9.07
COc1ccc2cc1Oc1ccc(cc1)C[C@H]1c3cc(c(OC)cc3CCN1C)Oc1c(OC)c(OC)cc3c1[C@H](C2)N(C)CC3 [OU-0032506, Tetrandrine] | 7.92 | 5.95 | 5.68 | 5.34 | 10.07 | 7.33 | 11.59 | 8.93
CCOC(=O)NC(=S)Nc1ccccc1NC(=S)NC(=O)OCC [OU-0000837, Thiophanate] | 3.05 | 1.80 | 3.24 | 3.72 | 3.05 | 1.80 | 14.84 | 13.42
O=C(c1ccc(OCCN2CCCCC2)cc1)c1c(-c2ccc(O)cc2)sc2cc(O)ccc12 [OU-0000741, Raloxifene HCl] | 69.39 | 35.59 | 45.85 | 26.99 | 56.66 | 52.80 | 83.30 | 77.54
O=C1CC2(CCCC2)CC(=O)N1CCCCN1CCN(c2ncccn2)CC1 [OU-0000735, Buspirone HCl] | 6.98 | 6.60 | 6.08 | 7.21 | 7.76 | 7.56 | 9.57 | 9.56

Reference: article PMC9114115, “Property space mapping of Pseudomonas aeruginosa permeability to small molecules” (Scientific Reports, 2022)
